{"source": "patent US11998549B2", "about": "“Methods of treating a vascular leakage-associated disease or disorder” (UNITY HEALTH TORONTO, priority 2019, dated 2024)", "key": {"[1]": {"system": "CLP-induced mortality", "test": "Mouse cecal ligation and puncture (CLP) model of sepsis, survival", "assay_type": "in vivo", "settings": "intravenous infusion of 1 mg/kg", "description": "(§1) The CLP model is a well established clinically relevant model for human sepsis (Smeding et al., 2012; Amatullah et al., 2016). Male 8-12 week old C57/B16 mice (Jackson lab) were randomized to CLP or sham surgeries. In anesthetised mice, the cecum was exteriorized, ligated, and perforated. Control animals were exposed to sham surgery, in which the cecum was manipulated, but not ligated or punctured. After surgery, animals received daily fluid resuscitation (subcutaneous (s.c.) 50 ml/kg saline), antibiotic (intraperitoneal (i.p.) imipenem 25 mg/kg) and pain management (s.c. buprenorphine 0.2 mg/kg). Experiments were divided into 2 groups: (1) to assess 7-day survival, and (2) to identify a mechanism of action of a G9a inhibitor in vivo. All experimental mice were randomized and investigators were blinded to group assignment."}, "[2]": {"system": "LPS induced zebrafish sepsis model", "test": "Survival in LPS induced zebrafish sepsis model", "assay_type": "in vivo", "settings": "24 h", "description": "An LPS induced zebrafish sepsis model which mimics the hallmarks of human sepsis was developed (Philip et al., 2017). Zebrafish show varied susceptibility and responsiveness to LPS from different bacterial strains. Exposure of zebrafish larvae at 3 days post-fertilization (dpf) to two types of LPS (LPS from Escherichia coli 0111:B4 (Sigma) at 100 μg/ml for 5-6 hrs; or LPS from Salmonella at 27 μg/ml for 24 hrs) were both effective in inducing tail fin swelling, increased ROS production, increased vascular leakage and increased mortality.\nSurvival analyses for zebrafish (wildtype) exposed to various concentrations of LPS (Escherichia coli 0111:B4; Sigma) was performed. 3 dpf larvae were exposed to LPS by immersion technique. Larvae were treated with 10, 25, 50, 125, 250, 500, 1000, 2500, 5000 or 10000 nM UNC0642 along with 100 μg/ml LPS (LPS was dissolved in eggwater), by static immersion at 28.5° C. for 24 h in a total volume of 2 mL per treatment. Control larvae were exposed to egg water. Survival numbers were recorded and EC50s calculated.\n3 dpf larvae were exposed to LPS by immersion technique. […] Control larvae were exposed to egg water. Survival numbers were recorded and EC50s calculated. The percentage (%) of embryos showing vascular leakage was also recorded and 1050s calculated."}, "[3]": {"system": "CLP-induced protein exudation into the alveolar space", "test": "Mouse CLP model, protein leakage into BALF", "assay_type": "in vivo", "settings": "intravenous infusion of 1 mg/kg", "description": "as §1\nAssessment of protective effects of UNC0642 on sepsis-induced vascular leakage: lung injury score and loss of alveolar-capillary membrane integrity with increased albumin and IgM exudation into bronchoalveolar lavage fluid (BALF) was assessed at 24 hrs post treatment."}, "[4]": {"system": "H3K9me2 in venous endothelial cell nuclei", "test": "H3K9me2 immunofluorescence in zebrafish larvae", "assay_type": "in vivo", "settings": "LPS 100 μg/ml + 1 μM UNC0642, 5 h", "description": "3 dpf Tg eGFP) larvae were exposed to Vehicle, LPS (100 μg/ml) or LPS+1 μM UNC0642 by static immersion for 5 h at 28.5° C. Embryos were fixed overnight at 4° C. in 2% PFA in PBST (PBS+0.1% Tween 20). Embryos were then washed 4×5 min in PBST at room temperature (RT) and permeabilized for 30 min at RT in PBST+0.5% TritonX-100. Embryos were then blocked in PBST+0.1% TritonX-100+10% NGS+1% BSA for 2 h at RT. Embryos were incubated with primary antibodies (Mouse monoclonal (mAbcam 1220) to Histone H3 (di-methyl K9) in blocking solution (1:200) overnight at 4° C. Embryos were then washed 6×20 min in PBST at RT and then incubated with the secondary antibody (Goat anti-mouse IgG Alexa fluor 647; 1:1000) in blocking solution for 2 h at RT. Embryos were finally washed 3×10 min in PBST at RT. Images were taken with a Zeiss Confocal Microscope."}, "[5]": {"system": "VE cadherin in HUVEC cells", "test": "Immunostaining of VE cadherin in HUVEC cells", "assay_type": "cell-based, human", "settings": "LPS 1 μg/ml + UNC0642 2.5 nM, 24 hours", "description": "HUVEC cells were seeded onto Lab-Tek II Chamber slide system at 1×10^6 cells/ml and grown to confluency. At 80-95% confluency they were treated with either the vehicle, LPS (1 μg/ml), LPS (1 μg/ml)+UNC0642 (2.5 nM) or UNC0642 (2.5 nM) for 24 hours. Then the following steps for immunostaining were performed • 1. Fixed the cells in 4% formaldehyde in warm PBS for 20 minutes at room temperature • 2. Aspirated the fixative • 3. Washed 3 times in PBS, 5 minutes each • 4. Blocked in blocking buffer for 2 hours at room temperature • 5. Aspirated the blocking buffer • 6. Added primary antibody VE cadherin (monoclonal VE Cad; cell signalling 2500S) at a dilution of 1:200 and incubated overnight at 4° C. • 7. Washed 3 times in PBS, 10 minutes each • 8. Added secondary antibody (goat anti-rabbit IgG Alexa Fluor 568; 1:1000 and Alexa Fluor 488 phalloidin; 1:1,000) and incubated for 2 hours at room temperature. • 9. Washed the cells 3 times in PBS, 10 minutes each at room temperature and mounted with a cover slip in 4′,6-diamidino-2-phenylindole (DAPI) Vectashield.\nImages were taken with a Zeiss™ confocal microscope. […] (FIG. 10)"}}}
{"smiles": "COc1cc2c(NC3CCN(C(C)C)CC3)nc(N3CCC(F)(F)CC3)nc2cc1OCCCN1CCCC1", "note": "[UNC0642, 2-(4,4-Difluoropiperidin-1-yl)-6-methoxy-N-[1-(propan-2-yl)piperidin-4-yl]-7-(3-(pyrrolidin-1-yl)propoxy]quinazolin-4-amine]", "values": [{"measurement": "Reduction of CLP-induced absolute mortality", "setting": "[1]", "result": "~50", "unit": "%"}, {"measurement": "EC50", "setting": "[2]; Escherichia coli, in Danio rerio, read-out: EC50 for improved survival of septic zebrafish larvae", "result": 789, "unit": "nM"}, {"measurement": "Rescue of sepsis-associated mortality", "setting": "[2]; comparison of UNC0642 and A366, zebrafish larvae, 27 μg/ml LPS", "result": "able to rescue"}, {"measurement": "Protein exudation into the alveolar space (total alveolar protein in the BALF)", "setting": "[3]", "result": "reduced protein exudation"}, {"measurement": "LPS induced increased H3K9me in venous endothelial cell nuclei", "setting": "[4]", "result": "rescues LPS induced increased H3K9me"}, {"measurement": "LPS-caused decrease in level and patterning of VE cadherin", "setting": "[5]", "result": "partially rescued"}]}
